For one test, the target named is Activated CDK2/CyclinA (Homo sapiens, UniProt P24941). In words: Activated CDK2/CyclinA kinase inhibitory activity assay (IC50), Example 250A. It is filed as biochemical. The method, then:
Compounds of the invention were tested for kinase inhibitory activity using the following protocol.
The reaction is allowed to proceed for 2 to 4 hours before being stopped with an excess of ortho-phosphoric acid (5 μl at 2%).
γ^33P-ATP which remains unincorporated into the histone H1 is separated from phosphorylated histone H1 on a Millipore MAPH filter plate. The wells of the MAPH plate are wetted with 0.5% orthophosphoric acid, and then the results of the reaction are filtered with a Millipore vacuum filtration unit through the wells. Following filtration, the residue is washed twice with 200 μl of 0.5% orthophosphoric acid. Once the filters have dried, 20 μl of Microscint 20 scintillant is added, and then counted on a Packard Topcount for 30 seconds.

The subject of test [1] is human colon carcinoma cell line HCT 116. In words: Anti-proliferative activity, Alamar Blue assay. Type of test: cell-based. To be noted: 72 hours compound incubation, read-out: IC50, inhibition of cell growth, HCT 116. The method, then:
The anti-proliferative activities of the combinations of the invention, as well as the individual components of the combinations, are determined by measuring the ability of the compounds to inhibition of cell growth in a number of cell lines. Inhibition of cell growth is measured using the Alamar Blue assay (Nociari, M. M, Shalev, A., Benias, P., Russo, C. Journal of Immunological Methods 1998, 213, 157-167). The method is based on the ability of viable cells to reduce resazurin to its fluorescent product resorufin. For each proliferation assay cells are plated onto 96 well plates and allowed to recover for 16 hours prior to the addition of inhibitor compounds for a further 72 hours. At the end of the incubation period 10% (v/v) Alamar Blue is added and incubated for a further 6 hours prior to determination of fluorescent product at […]. In the case of the non-proliferating cell assay cells are maintained at confluence for 96 hour prior to the addition of inhibitor compounds for a further 72 hours. The number of viable cells is determined by Alamar Blue assay as before. All cell lines are obtained from ECACC (European Collection of cell Cultures).
On the technique in general: Alamar Blue is a resazurin reagent that responds to reducing activity.

Each structure is given as a SMILES string.

Broadly, the IC50 is the concentration at which inhibition is half-maximal.

On to `COc1ccccc1CNC(=O)c1n[nH]cc1NC(=O)c1c(F)cccc1F` [Example 96], for which the IC50 (on Activated CDK2/CyclinA; in test [1]) was less than 20 µM in each case.
As for `Cc1nn(C)c(C)c1CNC(=O)c1n[nH]cc1NC(=O)c1c(F)cccc1F` [Example 99], the IC50 against Activated CDK2/CyclinA was less than 20 µM; in test [1], less than 100 µM.
On the same counts, the results for `O=C(NCC1CCCO1)c1n[nH]cc1NC(=O)c1c(F)cccc1F` (centres unmarked) [Example 100] are less than 20 µM and less than 20 µM.
On the same counts, the results for `Cc1cc(CNC(=O)c2n[nH]cc2NC(=O)c2c(F)cccc2F)no1` [Example 101] are less than 20 µM and less than 20 µM.
For `O=C(NCc1cccnc1)c1n[nH]cc1NC(=O)c1c(F)cccc1F` [Example 103] the same measures were less than 20 µM and less than 20 µM.
As for `O=C(NCc1ccncc1)c1n[nH]cc1NC(=O)c1c(F)cccc1F` [Example 104], the half-inhibitory concentration (IC50) (at Activated CDK2/CyclinA; in test [1]) was less than 20 µM each time.
For the molecule `O=C(NCc1ccco1)c1n[nH]cc1NC(=O)c1c(F)cccc1F` [Example 107], the half-maximal inhibitory concentration (IC50) (against Activated CDK2/CyclinA; in test [1]) was less than 20 µM each time.
For `CC(NC(=O)c1n[nH]cc1NC(=O)c1c(F)cccc1F)c1ccccc1` (centres unmarked) [Example 108], the half-inhibitory concentration (IC50) against Activated CDK2/CyclinA was less than 20 µM; in test [1], less than 100 µM.
On to `O=C(NC1CCN(CC2CC2)CC1)c1n[nH]cc1NC(=O)c1c(F)cccc1F` [Example 109], for which the half-maximal inhibitory concentration (IC50) (against Activated CDK2/CyclinA; in test [1]) was less than 20 µM each time.
Take `O=C(NC1CCN(c2ncccn2)CC1)c1n[nH]cc1NC(=O)c1c(F)cccc1F` [Example 110]: the concentration for half-maximal inhibition (IC50) (on Activated CDK2/CyclinA; in test [1]) was less than 20 µM each time.
On to `O=C(NCC1CCNCC1)c1n[nH]cc1NC(=O)c1c(F)cccc1F` [Example 111], for which the IC50 (against Activated CDK2/CyclinA; in test [1]) was less than 20 µM in each case.
For the molecule `O=C(NC1CCN(c2ccccn2)CC1)c1n[nH]cc1NC(=O)c1c(F)cccc1F` [Example 112], the 50% inhibitory concentration (IC50) (against Activated CDK2/CyclinA; in test [1]) was less than 20 µM throughout.
Take `CC1CCC(NC(=O)c2n[nH]cc2NC(=O)c2c(F)cccc2F)CC1` (centres unmarked) [Example 113]: the half-inhibitory concentration (IC50) (against Activated CDK2/CyclinA; in test [1]) was less than 20 µM in each case.
As to `O=C(NC1CCN(CC(F)(F)F)CC1)c1n[nH]cc1NC(=O)c1c(F)cccc1F` [Example 114], the IC50 (against Activated CDK2/CyclinA; in test [1]) was less than 20 µM in each case.
For the molecule `O=C(NC1CCN(c2cccc(Cl)n2)CC1)c1n[nH]cc1NC(=O)c1c(F)cccc1F` [Example 115], the IC50 (on Activated CDK2/CyclinA; in test [1]) was less than 20 µM in each case.
With `O=C(N[C@H]1CC[C@H](NC2CCOCC2)CC1)c1n[nH]cc1NC(=O)c1c(F)cccc1F` [Example 116], the IC50 (against Activated CDK2/CyclinA; in test [1]) was less than 20 µM throughout.
As for `CN1CCN([C@H]2CC[C@H](NC(=O)c3n[nH]cc3NC(=O)c3c(F)cccc3F)CC2)CC1` [Example 117], the IC50 (at Activated CDK2/CyclinA; in test [1]) was less than 20 µM each time.
Turning to `CN1CCN([C@H]2CC[C@@H](NC(=O)c3n[nH]cc3NC(=O)c3c(F)cccc3F)CC2)CC1` [Example 118], the IC50 (against Activated CDK2/CyclinA; in test [1]) was less than 20 µM in each case.
As for `O=C(NC1CCC(CO)CC1)c1n[nH]cc1NC(=O)c1c(F)cccc1F` (centres unmarked) [Example 120], the IC50 (against Activated CDK2/CyclinA; in test [1]) was less than 20 µM in each case.
For `O=C(NC1CCC(N2CCSCC2)CC1)c1n[nH]cc1NC(=O)c1c(F)cccc1F` (centres unmarked) [Example 121], the IC50 (at Activated CDK2/CyclinA; in test [1]) was less than 20 µM each time.
As to `CN(C)[C@H]1CC[C@H](NC(=O)c2n[nH]cc2NC(=O)c2c(F)cccc2F)CC1` [Example 124], the concentration for half-maximal inhibition (IC50) (against Activated CDK2/CyclinA; in test [1]) was less than 20 µM throughout.
In the case of `COCCN1CCC(NC(=O)c2n[nH]cc2NC(=O)c2c(F)cccc2F)CC1` [Example 125], the IC50 (against Activated CDK2/CyclinA; in test [1]) was less than 20 µM each time.
In the case of `O=C(N[C@H]1CC[C@H](N2CCS(=O)(=O)CC2)CC1)c1n[nH]cc1NC(=O)c1c(F)cccc1F` [Example 132], the IC50 (against Activated CDK2/CyclinA; in test [1]) was less than 20 µM throughout.
Turning to `O=C(NC1CCN(CC2CCOC2)CC1)c1n[nH]cc1NC(=O)c1c(F)cccc1F` (centres unmarked) [Example 133], the concentration for half-maximal inhibition (IC50) (against Activated CDK2/CyclinA; in test [1]) was less than 20 µM in each case.
`CC(C)(C)OC(=O)N1CCC(NC(=O)c2n[nH]cc2NC(=O)c2c(F)cc(F)cc2F)CC1` [Example 136]: the IC50 (on Activated CDK2/CyclinA; in test [1]) was less than 20 µM throughout.
Regarding `CO[C@H]1CC[C@H](NC(=O)c2n[nH]cc2NC(=O)c2c(F)cccc2F)CC1` [Example 137], the half-maximal inhibitory concentration (IC50) (against Activated CDK2/CyclinA; in test [1]) was less than 20 µM in each case.
With `O=C1CC[C@H](NC(=O)c2n[nH]cc2NC(=O)c2c(F)cccc2F)CN1` [Example 139], the half-inhibitory concentration (IC50) (against Activated CDK2/CyclinA; in test [1]) was less than 20 µM throughout.
With `O=C(NC1CCNCC1)c1n[nH]cc1NC(=O)c1c(F)cc(F)cc1F` [Example 148], the 50% inhibitory concentration (IC50) (at Activated CDK2/CyclinA; in test [1]) was less than 20 µM each time.
Turning to `O=C(N[C@H]1CCCNC1)c1n[nH]cc1NC(=O)c1c(F)cccc1F` [Example 152], the half-maximal inhibitory concentration (IC50) (at Activated CDK2/CyclinA; in test [1]) was less than 20 µM in each case.
As for `COc1ccccc1C(=O)Nc1c[nH]nc1C(=O)N[C@H]1CC[C@H](O)CC1` [Example 153], the IC50 (against Activated CDK2/CyclinA; in test [1]) was less than 20 µM each time.
For `COc1cccc(F)c1C(=O)Nc1c[nH]nc1C(=O)N[C@H]1CC[C@H](O)CC1` [Example 154], the IC50 (against Activated CDK2/CyclinA; in test [1]) was less than 20 µM throughout.
As for `O=C(N[C@H]1CC[C@H](O)CC1)c1n[nH]cc1NC(=O)c1c(F)cccc1Cl` [Example 155], the IC50 (on Activated CDK2/CyclinA; in test [1]) was less than 20 µM in each case.
In the case of `COc1cscc1C(=O)Nc1c[nH]nc1C(=O)N[C@H]1CC[C@H](O)CC1` [Example 158], the IC50 (against Activated CDK2/CyclinA; in test [1]) was less than 20 µM each time.
`O=C(Nc1c[nH]nc1C(=O)N[C@H]1CC[C@H](O)CC1)c1cccc2c1OCCO2` [Example 159]: the concentration for half-maximal inhibition (IC50) (against Activated CDK2/CyclinA; in test [1]) was less than 20 µM throughout.
On to `O=C(N[C@H]1CC[C@@H](NC2CCOCC2)CC1)c1n[nH]cc1NC(=O)c1c(F)cccc1F` [Example 170], for which the concentration for half-maximal inhibition (IC50) against Activated CDK2/CyclinA was less than 20 µM.
Same read-out and setting: for `CN1CCC(NC(=O)Nc2c[nH]nc2C(=O)N[C@H]2CC[C@H](O)CC2)CC1` [Example 171] the value was less than 20 µM.
Same read-out and setting: the same measure for `CC(C)(C)OC(=O)N1CCC(NC(=O)c2n[nH]cc2NC(=O)c2ccccc2)CC1` [Example 172]: less than 20 µM.
Regarding `CC(C)(C)OC(=O)N1CCC(NC(=O)c2n[nH]cc2NC(=O)c2ccc(F)cc2)CC1` [Example 173], at Activated CDK2/CyclinA, the half-inhibitory concentration (IC50) is less than 20 µM.
Same read-out and setting: the same measure for `CN1CCC(N2CCC(NC(=O)c3n[nH]cc3NC(=O)c3c(F)cccc3F)CC2)CC1` [Example 177]: less than 20 µM; for `CN1CCC(C(=O)Nc2c[nH]nc2C(=O)NCC2CC2)CC1` [Example 181]: less than 20 µM; for `CC(C)(C)NC(=O)Nc1c[nH]nc1C(=O)NCC1CC1` [Example 184]: less than 20 µM.
Still for that read-out and setting: for `O=C(N[C@@H]1CCNC1)c1n[nH]cc1NC(=O)c1c(F)cccc1F` [Example 185] the value was less than 20 µM; for `CO[C@H]1CC[C@H](NC(=O)c2n[nH]cc2NC(=O)c2c(Cl)cccc2Cl)CC1` [Example 210], less than 20 µM.

These data come from patent US8404718B2, “Combinations of pyrazole kinase inhibitors” (Astex Therapeutics Limited, priority 2005, dated 2013).
